Measured values published in patent US20260015350A1, “AZAQUINAZOLINE PAN-KRAS INHIBITORS” (Mirati Therapeutics, Inc., priority 2022, published 2026).

Tests used:
[1] = system: KRas-mediated phosphorylation of ERK in H727 cells; test: Inhibition of KRas-mediated phosphorylation of ERK (Cisbio HTRF pERK), H727 cells; format: cell-based; details: Homo sapiens, NCI-H727, H727 cells; HTRF pERK
Outline: (§1)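 H358, H727, H460 and AsPC-1 cells seeded at 6,000/well, treated 3 hrs with 10-dose 3-fold dilutions from 10 uM (0.8% DMSO); 0.2 uM trametinib as min control. Lysed 40 min at 4° C; lysate incubated 2 hrs at room temperature with d2/cryptate antibodies, HTRF read.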

KRas^G12D = target: T1, KRas^G12D (Homo sapiens, UniProt P01116, G12D); test: KRas binding assay (TR-FRET tracer displacement), KRas G12D
T1 construct: Biotinylated KRas (corresponding to amino acids 1-169, produced at Accelegan Inc.); biotin (biotinylated); purchased Accelegan Inc
T1 sequence (P01116 1-169 isoform P01116-2 G12D): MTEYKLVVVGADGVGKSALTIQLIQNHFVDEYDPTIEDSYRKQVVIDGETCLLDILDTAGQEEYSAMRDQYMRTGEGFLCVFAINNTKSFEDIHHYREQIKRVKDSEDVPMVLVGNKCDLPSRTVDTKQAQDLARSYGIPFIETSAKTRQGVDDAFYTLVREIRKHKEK

[2] = system: KRas-mediated phosphorylation of ERK in H358 cells; test: Inhibition of KRas-mediated phosphorylation of ERK (Cisbio HTRF pERK), H358 cells; format: cell-based; details: Homo sapiens, NCI-H358, HTRF pERK
Outline: as §1

KRas^G12S = target: T2, KRas^G12S (Homo sapiens, UniProt P01116, G12S); test: KRas binding assay (TR-FRET tracer displacement), KRas G12S; details: TR-FRET tracer displacement, KRas G12S
T2 construct: Biotinylated KRas (corresponding to amino acids 1-169, produced at Accelegan Inc.); biotin (biotinylated); purchased Accelegan Inc
T2 sequence (P01116 1-169 isoform P01116-2 G12S): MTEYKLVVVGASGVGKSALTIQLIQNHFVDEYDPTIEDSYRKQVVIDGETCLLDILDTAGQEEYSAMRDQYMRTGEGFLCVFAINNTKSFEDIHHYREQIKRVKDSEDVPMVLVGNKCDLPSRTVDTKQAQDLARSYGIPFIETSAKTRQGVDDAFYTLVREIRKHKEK

KRas^G12C = target: T3, KRas^G12C (Homo sapiens, UniProt P01116, G12C); test: KRas binding assay (TR-FRET tracer displacement), KRas G12C; details: TR-FRET tracer displacement, KRas G12C
T3 construct: Biotinylated KRas (corresponding to amino acids 1-169, produced at Accelegan Inc.); biotin (biotinylated); purchased Accelegan Inc
T3 sequence (P01116 1-169 isoform P01116-2 G12C): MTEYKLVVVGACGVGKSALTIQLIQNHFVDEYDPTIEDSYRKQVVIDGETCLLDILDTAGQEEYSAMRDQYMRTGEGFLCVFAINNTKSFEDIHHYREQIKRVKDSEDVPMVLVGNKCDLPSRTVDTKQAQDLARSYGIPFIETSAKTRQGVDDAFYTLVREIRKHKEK

KRas^G12V = target: T4, KRas^G12V (Homo sapiens, UniProt P01116, G12V); test: KRas binding assay (TR-FRET tracer displacement), KRas G12V
T4 construct: Biotinylated KRas (corresponding to amino acids 1-169, produced at Accelegan Inc.); biotin (biotinylated); purchased Accelegan Inc
T4 sequence (P01116 1-169 isoform P01116-2 G12V): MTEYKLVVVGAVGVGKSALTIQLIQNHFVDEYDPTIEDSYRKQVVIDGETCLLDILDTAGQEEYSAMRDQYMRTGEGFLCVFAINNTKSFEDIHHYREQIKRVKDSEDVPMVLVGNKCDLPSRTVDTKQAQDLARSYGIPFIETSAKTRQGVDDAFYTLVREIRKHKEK

[3] = system: KRas-mediated phosphorylation of ERK in H460 cells; test: Inhibition of KRas-mediated phosphorylation of ERK (Cisbio HTRF pERK), H460 cells; format: cell-based; details: Homo sapiens, NCI-H460, HTRF pERK
Outline: as §1

[4] = system: KRas-mediated phosphorylation of ERK in PSN1 cells; test: Inhibition of KRas-mediated phosphorylation of ERK (Cisbio HTRF pERK), PSN1 cells; format: cell-based; details: Homo sapiens
Outline: (§2)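 Phospho-ERK is quantified by HTRF with the Advanced pERK kit. Cells go in at 6,000/well in RPMI plus 10% FBS overnight at 37° C. under 5% CO2, with a 4-hour covered room-temperature incubation ahead of the read.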

[5] = system: KRas-mediated phosphorylation of ERK in A549 cells; test: Inhibition of KRas-mediated phosphorylation of ERK (Cisbio HTRF pERK), A549 cells; format: cell-based; details: Homo sapiens, HTRF pERK
Outline: (§3)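 Each compound was tested at 10 concentrations, threefold apart with 10 uM the highest, for 3 hrs on 6,000 seeded cells; final DMSO was 0.8% and Trametinib (0.2 uM) served as Min control. Lysed cells were analysed for pERK by HTRF.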

KRas^WT = target: T5, KRas^WT (Homo sapiens, UniProt P01116); test: KRas binding assay (TR-FRET tracer displacement), KRas WT; details: TR-FRET tracer displacement, KRas WT
T5 construct: Biotinylated KRas (corresponding to amino acids 1-169, produced at Accelegan Inc.); biotin (biotinylated); purchased Accelegan Inc
T5 sequence (P01116 1-169 isoform P01116-2): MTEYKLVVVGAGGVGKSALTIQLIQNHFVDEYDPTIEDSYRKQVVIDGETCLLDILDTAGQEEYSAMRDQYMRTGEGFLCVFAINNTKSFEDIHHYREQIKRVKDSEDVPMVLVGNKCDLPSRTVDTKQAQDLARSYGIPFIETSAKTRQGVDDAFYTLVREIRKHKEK

[6] = system: KRas-mediated phosphorylation of ERK in HCT116 cells; test: Inhibition of KRas-mediated phosphorylation of ERK (Cisbio HTRF pERK), HCT116 cells; format: cell-based; details: Homo sapiens, HCT-116, HTRF pERK
Outline: as §3

[7] = system: KRas-mediated phosphorylation of ERK in AsPC-1 cells; test: Inhibition of KRas-mediated phosphorylation of ERK (Cisbio HTRF pERK), AsPC-1 cells; format: cell-based; details: Homo sapiens, ASPC1, AsPC-1 cells; HTRF pERK
Outline: as §1

[8] = system: KRas-mediated phosphorylation of ERK in MKN1 cells; test: Inhibition of KRas-mediated phosphorylation of ERK (Cisbio HTRF pERK), MKN1 cells; format: cell-based; details: Homo sapiens, MKN-1
Outline: as §2

Structure (SMILES) | IC50 [1] | IC50 (KRas^G12D) | IC50 [2] | IC50 (KRas^G12S) | IC50 (KRas^G12C) | IC50 (KRas^G12V) | IC50 [3] | IC50 [4] | IC50 [5] | IC50 (KRas^WT) | IC50 [6] | IC50 [7] | IC50 [8]
C=C1CN2CCCC2(COc2nc(N3CCCC(C)(O)C3)c3cnc(-c4cc(O)cc5ccc(F)c(CC)c45)c(F)c3n2)C1 (stereo in doubt) [Example 797, (3R)-1-(7-(8-ethyl-7-fluoro-3-hydroxynaphthalen-1-yl)-8-fluoro-2-((2-methylenetetrahydro-1H-pyrrolizin-7a(5H)-yl)methoxy)pyrido[4,3-d]pyrimidin-4-yl)-3-methylpiperidin-3-ol] | 4 nM | < 2 nM | 1 nM | < 2 nM | < 2 nM | < 2 nM | 3 nM | 296 nM | 3 nM | < 2 nM | 10 nM | 1 nM | 
CCc1c(F)ccc2cc(O)cc(-c3ncc4c(N5C[C@@H]6C[C@H](C5)[C@H](O)C6)nc(OCC56CC(F)CN5CC(F)C6)nc4c3F)c12 (stereo partly drawn) [Example 923, (1R,5R,6R)-3-(2-((2,6-difluorotetrahydro-1H-pyrrolizin-7a(5H)-yl)methoxy)-7-(8-ethyl-7-fluoro-3-hydroxynaphthalen-1-yl)-8-fluoropyrido[4,3-d]pyrimidin-4-yl)-3-azabicyclo[3.2.1]octan-6-ol] | 125 nM | 18 nM |  | 5 nM | 7 nM | 4 nM |  | > 10000 nM |  | 8 nM |  | 365 nM | 9 nM
CCc1c(F)ccc2cc(O)cc(-c3ncc4c(N5C[C@@H]6C[C@H](C5)[C@H](O)C6)nc(OCC56CCCN5CC(F)(F)C6)nc4c3F)c12 (stereo partly drawn) [Example 924, (1R,5R,6R)-3-(2-((2,2-difluorotetrahydro-1H-pyrrolizin-7a(5H)-yl)methoxy)-7-(8-ethyl-7-fluoro-3-hydroxynaphthalen-1-yl)-8-fluoropyrido[4,3-d]pyrimidin-4-yl)-3-azabicyclo[3.2.1]octan-6-ol] | 118 nM | 14 nM |  | 5 nM | 7 nM | 4 nM |  | > 10000 nM |  | 7 nM |  | 262 nM | 14 nM
CCc1c(F)ccc2cc(O)cc(-c3ncc4c(N5C[C@@H]6C[C@H](C5)[C@H](O)C6)nc(OC[C@@]56CCCN5C[C@@H](OC)C6)nc4c3F)c12 [Example 925, (1R,5R,6R)-3-(7-(8-ethyl-7-fluoro-3-hydroxynaphthalen-1-yl)-8-fluoro-2-(((2S,7aS)-2-methoxytetrahydro-1H-pyrrolizin-7a(5H)-yl)methoxy)pyrido[4,3-d]pyrimidin-4-yl)-3-azabicyclo[3.2.1]octan-6-ol] | 302 nM | 6 nM |  | 3 nM | 4 nM | 2 nM |  | > 10000 nM |  | 3 nM |  | 826 nM | 9 nM
CCc1c(F)ccc2cc(O)cc(-c3ncc4c(N5C[C@@H]6C[C@H](C5)[C@H](O)C6)nc(OC[C@@]56CCCN5C[C@H](OC)C6)nc4c3F)c12 [Example 926, (1R,5R,6R)-3-(7-(8-ethyl-7-fluoro-3-hydroxynaphthalen-1-yl)-8-fluoro-2-(((2R,7aS)-2-methoxytetrahydro-1H-pyrrolizin-7a(5H)-yl)methoxy)pyrido[4,3-d]pyrimidin-4-yl)-3-azabicyclo[3.2.1]octan-6-ol] | 29 nM | 2 nM |  | < 2 nM | < 2 nM | < 2 nM |  | 3000 nM |  | < 2 nM |  | 66 nM | 0.7 nM
CCc1c(F)ccc2cc(O)cc(-c3ncc4c(N5C[C@@H]6C[C@H](C5)[C@H](O)C6)nc(OC[C@@]56CCCN5C[C@@H](F)C6)nc4c3F)c12 [Example 927, (1R,5R,6R)-3-(7-(8-ethyl-7-fluoro-3-hydroxynaphthalen-1-yl)-8-fluoro-2-(((2S,7aS)-2-fluorotetrahydro-1H-pyrrolizin-7a(5H)-yl)methoxy)pyrido[4,3-d]pyrimidin-4-yl)-3-azabicycle[3.2.1]octan-6-ol] | 202 nM | 13 nM |  | 5 nM | 7 nM | 4 nM |  | > 10000 nM |  | 6 nM |  | 468 nM | 17 nM
C[C@@H]1C[C@@H]1c1c(Cl)cc(O)cc1-c1ncc2c(N3CCCn4nc(C(=O)N(C)C)cc4C3)nc(OCC34CCCN3C/C(=C\F)C4)nc2c1F (stereo partly drawn) [Example 936, 5-(7-(3-chloro-5-hydroxy-2-((1S,2R)-2-methylcyclopropyl)phenyl)-8-fluoro-2-(((Z)-2-(fluoromethylene)tetrahydro-1H-pyrrolizin-7a(5H)-yl)methoxy)pyrido[4,3-d]pyrimidin-4-yl)-N,N-dimethyl-5,6,7,8-tetrahydro-4H-pyrazolo[1,5-a][1,4]diazepine-2-carboxamide] | 25 nM | < 2 nM | 11 nM | < 2 nM | 2 nM | < 2 nM | 104 nM |  | 71 nM | 3 nM | 262 nM | 17 nM | 2 nM
C[C@@H]1C[C@@H]1c1c(Cl)cc(O)cc1-c1ncc2c(N3CCC[C@]4(C3)NC(=O)NC4=O)nc(OCC34CCCN3C/C(=C\F)C4)nc2c1F (stereo partly drawn) [Example 937, (5R)-7-(7-(3-chloro-5-hydroxy-2-((1S,2R)-2-methylcyclopropyl)phenyl)-8-fluoro-2-(((Z)-2-(fluoromethylene)tetrahydro-1H-pyrrolizin-7a(5H)-yl)methoxy)pyrido[4,3-d]pyrimidin-4-yl)-1,3,7-triazaspiro[4.5]decane-2,4-dione] | 116 nM | < 2 nM | 12 nM | < 2 nM | < 2 nM | < 2 nM | 36 nM |  | 55 nM | < 2 nM | 88 nM | 116 nM | 1 nM
C/C=C1/CN2CCCC2(COc2nc(N3C[C@@H]4C[C@H](C3)[C@H](O)C4)c3cnc(-c4cc(O)cc5ccc(F)c(CC)c45)c(F)c3n2)C1 (stereo partly drawn) [Example 939, (1R,5R,6R)-3-(7-(8-ethyl-7-fluoro-3-hydroxynaphthalen-1-yl)-2-(((E)-2-ethylidenetetrahydro-1H-pyrrolizin-7a(5H)-yl)methoxy)-8-fluoropyrido[4,3-d]pyrimidin-4-yl)-3-azabicyclo[3.2.1]octan-6-ol] | 28 nM | < 2 nM | 5 nM | < 2 nM | < 2 nM | < 2 nM | 18 nM |  | 11 nM | < 2 nM | 27 nM | 32 nM | 0.1 nM
C=C1CN2CCCC2(COc2nc(N3CCCC4(CNS(=O)(=O)N4)C3)c3cnc(-c4cc(O)cc5ccc(F)c(CC)c45)c(F)c3n2)C1 (stereo not drawn) [Example 940, 7-(7-(8-ethyl-7-fluoro-3-hydroxynaphthalen-1-yl)-8-fluoro-2-((2-methylenetetrahydro-1H-pyrrolizin-7a(5H)-yl)methoxy)pyrido[4,3-d]pyrimidin-4-yl)-2-thia-1,3,7-triazaspiro[4.5]decane 2,2-dioxide] | 72 nM | < 2 nM | 10 nM | < 2 nM | < 2 nM | < 2 nM | 17 nM |  | 33 nM | < 2 nM | 43 nM | 42 nM | 2 nM
CCc1c(F)ccc2cc(O)cc(-c3ncc4c(N5C[C@@H]6C[C@H](C5)[C@H](O)C6)nc(OC[C@@H]5CC[C@H]6COCCN65)nc4c3F)c12 [Example 945, (1R,5R,6R)-3-(7-(8-ethyl-7-fluoro-3-hydroxynaphthalen-1-yl)-8-fluoro-2-(((6S,8aS)-hexahydro-1H-pyrrolo[2,1-c][1,4]oxazin-6-yl)methoxy)pyrido[4,3-d]pyrimidin-4-yl)-3-azabicyclo[3.2.1]octan-6-ol] | 29 nM | 6 nM | 12 nM | < 2 nM | 4 nM | 3 nM | 29 nM |  | 46 nM | 3 nM | 40 nM | 79 nM | 0.2 nM
